One compound from PMC4029082, “Functional characterisation of a nicotinic acetylcholine receptor α subunit from the brown dog tick, Rhipicephalus sanguineus^” (International Journal for Parasitology, 2014) can be followed below.

The structures appear in SMILES notation.

The target of this experiment is T1, Rsanα1 nicotinic acetylcholine receptor α subunit (Rhipicephalus sanguineus, UniProt V9Z9T0).
T1 construct: full-length Rsanα1 (GenBank KF695387) expressed in Xenopus laevis oocytes; with chicken β2 nAChR subunit
T1 sequence (V9Z9T0 45-525): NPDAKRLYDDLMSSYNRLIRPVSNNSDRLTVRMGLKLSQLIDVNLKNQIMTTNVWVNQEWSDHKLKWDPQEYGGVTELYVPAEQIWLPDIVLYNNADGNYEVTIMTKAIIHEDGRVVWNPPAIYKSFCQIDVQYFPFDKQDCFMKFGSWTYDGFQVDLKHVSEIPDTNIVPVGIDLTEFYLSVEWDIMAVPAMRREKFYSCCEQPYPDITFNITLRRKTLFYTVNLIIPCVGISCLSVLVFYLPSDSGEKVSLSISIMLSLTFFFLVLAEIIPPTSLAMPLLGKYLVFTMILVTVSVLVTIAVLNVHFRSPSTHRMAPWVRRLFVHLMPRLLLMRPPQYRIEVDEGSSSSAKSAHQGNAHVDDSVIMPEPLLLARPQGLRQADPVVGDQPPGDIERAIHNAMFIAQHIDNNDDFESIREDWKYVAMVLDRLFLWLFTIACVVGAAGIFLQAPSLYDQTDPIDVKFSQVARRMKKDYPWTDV
T1 sequence (P09484 19-491 partner): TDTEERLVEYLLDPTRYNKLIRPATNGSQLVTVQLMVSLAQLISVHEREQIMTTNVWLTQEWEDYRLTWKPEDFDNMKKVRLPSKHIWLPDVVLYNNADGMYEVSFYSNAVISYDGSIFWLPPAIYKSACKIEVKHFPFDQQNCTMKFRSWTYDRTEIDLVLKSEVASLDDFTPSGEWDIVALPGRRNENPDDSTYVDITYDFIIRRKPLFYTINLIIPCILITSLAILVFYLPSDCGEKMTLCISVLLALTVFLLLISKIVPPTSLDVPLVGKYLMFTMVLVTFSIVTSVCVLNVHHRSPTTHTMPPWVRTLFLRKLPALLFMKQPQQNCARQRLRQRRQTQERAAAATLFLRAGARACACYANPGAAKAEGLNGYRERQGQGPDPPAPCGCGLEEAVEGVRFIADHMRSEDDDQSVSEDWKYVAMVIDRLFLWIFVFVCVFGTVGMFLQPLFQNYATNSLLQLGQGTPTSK
Nature of the experiment: two-electrode voltage clamp in Xenopus oocytes, concentration-response curve (agonist). In kind it is cell-based.

As to `CC(=O)OCC[N+](C)(C)C` [acetylcholine], the concentration giving a half-maximal response (EC50) – broadly, the concentration that produces a half-maximal response – worked out at 10.7 µM.
